Assay results from US20130252930A1 (BIOMARIN PHARMACEUTICAL INC., priority 2010, published 2013).

How the values were obtained:
in vitro = conditions: rat, microsomes, pH 7.4
[1] = biological target: T1, CYP17 (human testicular microsome) (Homo sapiens, UniProt P05093); assay: CYP17 enzymatic assay (% inhibition at 10 nM), version 1 (Biological Example 5); format: biochemical; conditions: 10 nM compound, DHEA by ELISA, read-out: Biological Example No. 5: CYP17 percent inhibition at 10 nM (version 1)
T1 construct: using microsomal fraction from human testis (Celsis Cat #S00110) as the enzyme source; tissue Celsis S00110; host or cells: human testis microsomal fraction
T1 sequence (P05093 1-508): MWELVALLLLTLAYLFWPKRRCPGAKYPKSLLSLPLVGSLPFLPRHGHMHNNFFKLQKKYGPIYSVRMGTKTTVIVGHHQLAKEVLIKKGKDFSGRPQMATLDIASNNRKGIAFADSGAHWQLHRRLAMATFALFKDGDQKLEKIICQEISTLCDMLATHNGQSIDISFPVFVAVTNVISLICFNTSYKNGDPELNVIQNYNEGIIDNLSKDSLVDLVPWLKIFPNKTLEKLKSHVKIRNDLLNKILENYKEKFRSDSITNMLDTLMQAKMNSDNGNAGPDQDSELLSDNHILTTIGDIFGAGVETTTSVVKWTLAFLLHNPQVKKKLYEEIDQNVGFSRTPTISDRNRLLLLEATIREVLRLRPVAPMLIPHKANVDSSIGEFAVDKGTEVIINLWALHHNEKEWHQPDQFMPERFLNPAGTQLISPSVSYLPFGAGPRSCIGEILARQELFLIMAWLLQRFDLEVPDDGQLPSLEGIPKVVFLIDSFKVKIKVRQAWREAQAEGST

[2] = biological target: T2, Human C17,20-lyase (microsomal fraction from human testis) (Homo sapiens, UniProt P05093); assay: CYP17 enzymatic assay (% inhibition at 10 nM), version 2 (Biological Example 6); format: biochemical; conditions: method: tested at 100 nM; human testis microsome, radiometric
T2 construct: using microsomal fraction from human testis (Celsis Cat #S00110) as the enzyme source; tissue Celsis S00110; host or cells: human testis microsomal fraction
T2 sequence (P05093 1-508): T1 sequence (P05093 1-508)
Experimental: Human C17,20-lyase enzymatic assays were conducted in 200 μL volume in Eppendorf tubes, using microsomal fraction from human testis (Celsis Cat #S00110) as the enzyme source. Total protein concentration of the microsomal fraction is estimated to be 20 mg/ml. Prior to adding the microsomal fractions, reaction mixtures containing 50 mM NaPO4 buffer (pH 7.4), 1 mM MgCl2, 0.1 mM EDTA, 0.1 mM dithiothreitol, 0.5 mM NADPH, 4 μM 17α-hydroxypregnenolone, 1 μL of [21-^3H]-17α-hydroxypregnenolone (American Radiolabeled Chemicals, ART #1663, Specific activity=50-60 Ci/mmol), and the appropriate testing compounds were incubated for 5 minutes in a 37° C. shaking water bath (150 rpm). Following the 5-minute pre-incubation, 5 μL of human testis microsome was added to each of the reaction mixtures (except for the Negative Controls, which received 5 μL of H2O). After 30-minute incubation at 37° C. in shaking water bath (150 rpm), reactions were stopped by addition of 200 μL of cold chloroform and vigorous shaking for 30 minutes. Tubes were centrifuged at 1,500×g for 15 minutes at 4° C., and the aqueous phase was transferred to fresh Eppendorf tubes. Forty microliters (40 μL) of 8.5% charcoal (Sigma Cat #C6241) suspension was added to each tube, mixed well and incubated at 4° C. for 30 minutes. Tubes were centrifuged at 1,500×g for 15 minutes at 4° C., and 100 μL upper layer from each tube was transferred into each well of a 96-well isoplate (PerkinElmer Cat #6005040). Finally, 100 μL of Optiphase supermix scintillation fluid (PerkinElmer Cat #1200430) was added to each well, mixed by pippeting up and down 3 times. Radioactivity was measured with MicroBeta Trilux Counter using tritium program.
All testing compounds were dissolved and diluted in methanol. Two microliters (2 μL) of the properly diluted test compound was added to each reaction to reach the desired concentration. In Negative control (no enzyme activity) and Activity control (100% enzyme activity), 2 μL of methanol was added. Each data point was tested in duplicate. […]
For compounds of further interest, IC50 value was generated by measuring the inhibition rate at 5 concentrations and using Prism software under “non-linear regression analysis.”

[3] = Human liver microsome stability assay (Biological Example 8b); conditions: liver microsomes, pH 7.4
Experimental: The reaction was started with addition of excess NADPH (5 mg/mL, 15 μL in 0.1 M potassium phosphate buffer, 1.0 mM EDTA, pH 7.4), the total volume is 45 μL (compound final concentration was 1 μM). […] 50 μL of the supernatant was transferred from each well into a 96-well sample plate containing 50 μL of ultra-pure water (Millipore) for LC-MS/MS analysis.

[4] = biological target: T1, CYP17 (human testicular microsome); assay: CYP17 enzymatic assay (IC50) (Biological Example 4); format: biochemical; conditions: human testicular microsome, DHEA by ELISA; read-out: Biological Example No. 4: CYP17 enzymatic assay IC50
[5] = Rat liver microsome stability assay (Biological Example 8a); conditions: liver microsomes, pH 7.4

SMILES	half-life at 1 μM (in vitro) [min]	inhibition at 0.01 µM [1] [%]	Biological Example No. 6: CYP17 percent inhibition (version 2) [2]	half-life at 1 μM [3] [min]	IC50 [4] [nM]	half-life at 1 μM [5] [min]
C[C@]12CCCCC1=CC[C@@H]1[C@@H]2CC[C@]2(C)C(c3cccnc3)=CC[C@@H]12 [Compound 67, 3-((10R,13S)-10,13-dimethyl-2,3,4,7,8,9,10,11,12,13,14,15-dodecahydro-1H-cyclopenta[a]phenanthren-17-yl)pyridine]	1 to 10	50 to 80				
C[C@]12CCC(=O)OC[C@@H]1CC[C@@H]1[C@@H]2CC[C@]2(C)C(c3cccnc3)=CC[C@@H]12 [Compound 113, (1S,12S,16S,2R,8R,11R)-2,16-dimethyl-15-(3-pyridyl)-6-oxatetracyclo[9.7.0.0^2,8.0^12,16]octadec-14-en-5-one]			F (F means the compound had a percent inhibition of greater than or equal to 38%)	1 to 50	< 11	10 to 60
